Laboratory results as given in patent US20220162191A1, “SMALL MOLECULE MODULATORS OF IL-17” (LEO PHARMA A/S, priority 2019, published 2022).

The molecules below were run against T1, human IL-17AA (Homo sapiens, UniProt Q16552) (assay: IL-8 release assay in human epithelial keratinocytes adult (HEKa)). Conditions: 3 ng/ml human IL-17AA + 10 ng/ml human TNFalpha, 68-72 h, IL-8 by HTRF, read-out: Rel EC50 L-8 release assay.
T1 construct: host or cells: HEK (human embryonic kidney) cells
T1 sequence (Q16552 24-155) 1: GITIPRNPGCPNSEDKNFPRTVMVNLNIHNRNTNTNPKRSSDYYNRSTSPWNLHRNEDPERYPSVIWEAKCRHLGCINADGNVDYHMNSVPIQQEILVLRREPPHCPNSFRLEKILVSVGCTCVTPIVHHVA
T1 sequence (Q16552 24-155) 2: T1 sequence (Q16552 24-155) 1
Assay type: cell-based
Experimental: Example: IL-8 release assay in human epithelial keratinocytes adult (HEKa) Keratinocytes were seeded at 3500 cells/well in 384-well ViewPlates (Perkin Elmer) in Epilife medium (Thermo Fisher) containing human keratinocyte growth supplement (HKGS) without hydrocortisone and incubated in a humid incubator at 37° C., 5% CO2, overnight. The following day growth medium was removed and 25 μl fresh Epilife 10 medium added. 75 nl test compound in 100% DMSO was added into each well reserved
for test compounds, by the use of acoustic pipetting. The remaining wells received an equal volume of DMSO only, as vehicle control, or terfenadine in DMSO, as a positive control for any cytotoxic compounds. Subsequently, another 25 μl Epilife medium was added to each well. Finally, wells containing test compounds and wells prepared to yield 15 maximum stimulation received 25 μl of 9 ng/ml recombinant, human embryonic kidney cell (HEK)-derived human IL-17AA+30 ng/ml human TNF-alpha, in Epilife medium. Wells prepared to define 100% inhibition of IL-17 effects received 25 μl of 30 ng/ml human TNF-alpha alone, in Epilife medium. Final concentrations were 3 ng/ml HEKhuman IL-17AA+10 ng/ml human TNFalpha (maximum stimulation) and 10 ng/ml 20 human TNFalpha alone (100% inhibition, Emax), respectively. Cells were incubated for 68-72 h in the incubator. IL-8 released from the cells was measured by the use of a commercial homogenous time-resolved fluorescence (HTRF) assay (CisBio). 2 μl cell culture supernatant was transferred to a 384-well Proxiplate. 5 μl HTRF reagent was added and the plates incubated sealed in the dark for 3-22 h at room temperature. Time resolved fluorescence was read at 665 vs 620 nm, with excitation at 320 nm, and IL-8 levels calculated as percent of controls. Reduction of the amount of secreted IL-8 indicates decreased IL-17 signaling. Concentration response curves were fitted by the use of a four-parameter logistic equation. Relative IC50 and Emax were reported from 5 curves showing acceptable fit (r2>0.9). Cytotoxicity was measured in the cell-containing
Compounds of the present invention were tested in the IL-8 release assay in human epithelial keratinocytes.
In the case of `CC(C)n1cc(-c2cccc(C(c3ccccc3)C(NC(=O)c3ccnn3C)C(=O)Nc3ccc(-c4cncn4C)cc3)c2)ccc1=O` (single isomer, unassigned) [Example 230, N-[1-[[3-(1-isopropyl-6-oxo-3-pyridyl)phenyl]-phenyl-methyl]-2-[4-(3-methylimidazol-4-yl)anilino]-2-oxo-ethyl]-2-methyl-pyrazole-3-carboxamide], the EC50 is reported as 100 to 1000 nM.
In the case of `CC(C)n1cc(-c2cccc(C(c3ccccc3)C(NC(=O)OC3CC3)C(=O)Nc3ccc(-c4cncn4C)cc3)c2)ccc1=O` (single isomer, unassigned) [Example 231, Cyclopropyl N-[1-[[3-(1-isopropyl-6-oxo-3-pyridyl)phenyl]-phenyl-methyl]-2-[4-(3-methylimidazol-4-yl)anilino]-2-oxo-ethyl]carbamate], the EC50 is reported as 100 to 1000 nM.
In the case of `Cc1n[nH]cc1-c1ccc(NC(=O)C(NC(=O)c2ccnn2C)C(c2ccccc2)c2cccc(-c3ccc(=O)n(C(C)C)c3)c2)cc1` (single isomer, unassigned; diastereomer 1) [Example 235, N-[1-[[3-(1-isopropyl-6-oxo-3-pyridyl)phenyl]-phenyl-methyl]-2-[4-(3-methyl-1H-pyrazol-4-yl)anilino]-2-oxo-ethyl]-2-methyl-pyrazole-3-carboxamide (Diastereomer 1)], the EC50 is reported as under 100 nM.
In the case of `Cc1n[nH]cc1-c1ccc(NC(=O)C(NC(=O)OC2CC2)C(c2ccccc2)c2cccc(-c3ccc(=O)n(C(C)C)c3)c2)cc1` (single isomer, unassigned; diastereomer 1) [Example 242, cyclopropyl N-[1-[[3-(1-isopropyl-6-oxo-3-pyridyl)phenyl]-phenyl-methyl]-2-[4-(3-methyl-1H-pyrazol-4-yl)anilino]-2-oxo-ethyl]carbamate (Diastereomer 1)], the EC50 is reported as over 1000 nM.
Work on `CC(C)n1cc(-c2cccc(C(c3ccccc3)C(NC(=O)c3ccnn3C)C(=O)Nc3ccc(-c4cncn4C)cc3)c2)ccc1=O` (single isomer, unassigned; diastereomer 2) [Example 232, N-[1-[[3-(1-isopropyl-6-oxo-3-pyridyl)phenyl]-phenyl-methyl]-2-[4-(3-methylimidazol-4-yl)anilino]-2-oxo-ethyl]-2-methyl-pyrazole-3-carboxamide (Diastereomer 2)] yielded an EC50 of over 1000 nM.
Work on `Cc1n[nH]cc1-c1ccc(NC(=O)C(NC(=O)c2ccnn2C)C(c2ccccc2)c2cccc(-c3ccc(=O)n(C(C)C)c3)c2)cc1` (single isomer, unassigned; diastereomer 2) [Example 236, N-[1-[[3-(1-isopropyl-6-oxo-3-pyridyl)phenyl]-phenyl-methyl]-2-[4-(3-methyl-1H-pyrazol-4-yl)anilino]-2-oxo-ethyl]-2-methyl-pyrazole-3-carboxamide (Diastereomer 2)] yielded an EC50 of under 100 nM.
For `CC(C)n1cc(-c2cccc(C(c3ccccc3)C(NC(=O)OC3CC3)C(=O)Nc3ccc(-c4cncn4C)cc3)c2)ccc1=O` (single isomer, unassigned; diastereomer 2) [Example 239, cyclopropyl N-[1-[[3-(1-isopropyl-6-oxo-3-pyridyl)phenyl]-phenyl-methyl]-2-[4-(3-methylimidazol-4-yl)anilino]-2-oxo-ethyl]carbamate (Diastereomer 2)], the EC50 was 100 to 1000 nM.
In the case of `Cc1n[nH]cc1-c1ccc(NC(=O)C(NC(=O)OC2CC2)C(c2ccccc2)c2cccc(-c3ccc(=O)n(C(C)C)c3)c2)cc1` (single isomer, unassigned; diastereomer 2) [Example 243, cyclopropyl N-[1-[[3-(1-isopropyl-6-oxo-3-pyridyl)phenyl]-phenyl-methyl]-2-[4-(3-methyl-1H-pyrazol-4-yl)anilino]-2-oxo-ethyl]carbamate (Diastereomer 2)], the EC50 is reported as 100 to 1000 nM.
`CC(C)n1cc(-c2cccc(C(c3ccccc3)C(NC(=O)c3ccnn3C)C(=O)Nc3ccc(-c4cncn4C)cc3)c2)ccc1=O` (single isomer, unassigned; diastereomer 3) [Example 233, N-[1-[[3-(1-isopropyl-6-oxo 3-pyridyl)phenyl]-phenyl-methyl]-2-[4-(3-methylimidazol-4-yl)anilino] 2-oxo-ethyl]-2-methyl-pyrazole-3-carboxamide (Diastereomer 3)] gave an EC50 of over 1000 nM.
`Cc1n[nH]cc1-c1ccc(NC(=O)C(NC(=O)c2ccnn2C)C(c2ccccc2)c2cccc(-c3ccc(=O)n(C(C)C)c3)c2)cc1` (single isomer, unassigned; diastereomer 3) [Example 237, N-[1-[[3-(1-isopropyl-6-oxo-3-pyridyl)phenyl]-phenyl-methyl]-2-[4-(3-methyl-1H-pyrazol-4-yl)anilino]-2-oxo-ethyl]-2-methyl-pyrazole-3-carboxamide (Diastereomer 3)] showed an EC50 of over 1000 nM.
With `CC(C)n1cc(-c2cccc(C(c3ccccc3)C(NC(=O)OC3CC3)C(=O)Nc3ccc(-c4cncn4C)cc3)c2)ccc1=O` (single isomer, unassigned; diastereomer 3) [Example 240, cyclopropyl N-[1-[[3-(1-isopropyl-6-oxo-3-pyridyl)phenyl]-phenyl-methyl]-2-[4-(3-methylimidazol-4-yl)anilino]-2-oxo-ethyl]carbamate (Diastereomer 3)] the EC50 was over 1000 nM.
For `Cc1n[nH]cc1-c1ccc(NC(=O)C(NC(=O)OC2CC2)C(c2ccccc2)c2cccc(-c3ccc(=O)n(C(C)C)c3)c2)cc1` (single isomer, unassigned; diastereomer 3) [Example 244, cyclopropyl N-[1-[[3-(1-isopropyl-6-oxo-3-pyridyl)phenyl]-phenyl-methyl]-2-[4-(3-methyl-1H-pyrazol-4-yl)anilino]-2-oxo-ethyl]carbamate (Diastereomer 3)], the EC50 was over 1000 nM.
With `CC(C)n1cc(-c2cccc(C(c3ccccc3)C(NC(=O)c3ccnn3C)C(=O)Nc3ccc(-c4cncn4C)cc3)c2)ccc1=O` (single isomer, unassigned; diastereomer 4) [Example 234, N-[1-[[3-(1-isopropyl-6-oxo-3-pyridyl)phenyl]-phenyl-methyl]-2-[4-(3-methylimidazol-4-yl)anilino]-2-oxo-ethyl]-2-methyl-pyrazole-3-carboxamide (Diastereomer 4)] the EC50 was 100 to 1000 nM.
`Cc1n[nH]cc1-c1ccc(NC(=O)C(NC(=O)c2ccnn2C)C(c2ccccc2)c2cccc(-c3ccc(=O)n(C(C)C)c3)c2)cc1` (single isomer, unassigned; diastereomer 4) [Example 238, N-[1-[[3-(1-isopropyl-6-oxo-3-pyridyl)phenyl]-phenyl-methyl]-2-[4-(3-methyl-1H-pyrazol-4-yl)anilino]-2-oxo-ethyl]-2-methyl-pyrazole-3-carboxamide (Diastereomer 4)] was tested, and the EC50 was 100 to 1000 nM.
`CC(C)n1cc(-c2cccc(C(c3ccccc3)C(NC(=O)OC3CC3)C(=O)Nc3ccc(-c4cncn4C)cc3)c2)ccc1=O` (single isomer, unassigned; diastereomer 4) [Example 241, cyclopropyl N-[1-[[3-(1-isopropyl-6-oxo-3-pyridyl)phenyl]-phenyl-methyl]-2-[4-(3-methylimidazol-4-yl)anilino]-2-oxo-ethyl]carbamate (Diastereomer 4)] showed an EC50 of over 1000 nM.
With `Cc1n[nH]cc1-c1ccc(NC(=O)C(NC(=O)OC2CC2)C(c2ccccc2)c2cccc(-c3ccc(=O)n(C(C)C)c3)c2)cc1` (single isomer, unassigned; diastereomer 4) [Example 245, cyclopropyl N-[1-[[3-(1-isopropyl-6-oxo-3-pyridyl)phenyl]-phenyl-methyl]-2-[4-(3-methyl-1H-pyrazol-4-yl)anilino]-2-oxo-ethyl]carbamate (Diastereomer 4)] the EC50 was under 100 nM.
`Cc1n[nH]c(C)c1-c1ccc(NC(=O)[C@@H](NC(=O)c2ccnn2C)[C@@H]2CCc3ccc(-c4ccc5c(c4)CNC5)cc32)cc1` [Example 1, N-[(1S)-2-[4-(3,5-dimethyl-1H-pyrazol-4-yl)anilino]-1-[(1R)-6-isoindolin-5-ylindan-1-yl]-2-oxo-ethyl]-2-methyl-pyrazole-3-carboxamide] showed an EC50 of under 100 nM.
Molecule `Cc1n[nH]c(C)c1-c1ccc(NC(=O)[C@@H](NC(=O)c2ccnn2C)[C@@H]2CCc3ccc(-c4ccc(CN5CCOCC5)cc4)cc32)cc1` [Example 2, N-[(1S)-2-[4-(3,5-dimethyl-1H-pyrazol-4-yl)anilino]-1-[(1R)-6-[4-(morpholinomethyl)phenyl]indan-1-yl]-2-oxo-ethyl]-2-methyl-pyrazole-3-carboxamide] has an EC50 of under 100 nM.
